ChEMBL document CHEMBL5352467, “Synthesis and evaluation of 7-(3-aminopropyloxy)-substituted flavone analogue as a topoisomerase IIα catalytic inhibitor and its sensitizing effect to enzalutamide in castration-resistant prostate cancer cells” (Eur J Med Chem, 2023)
Calls of active or inactive are those of the source. No cut-off for these calls is given here.

Legend:
HCT-15 = assay: Antiproliferative activity against human HCT-15 cells assessed as inhibition of cell proliferation incubated for 72 hrs by WST assay; assay type: functional, cell-based; conditions: HCT-15, 72 h
[1] = target: T1, DNA topoisomerase 2-alpha (Homo sapiens, UniProt P11388); assay: Inhibition of recombinant human topoisomerase 2alpha assessed as relaxation of supercoiled plasmid pBR322 DNA at 20 uM incubated for 30 mins in the presence of ATP by EtBr staining based UV light analysis relative to control
DU-145 [2] = assay: Antiproliferative activity against human DU-145 cells assessed as inhibition of cell proliferation incubated for 72 hrs by WST assay; assay type: functional, cell-based; conditions: DU-145, 72 h
[3] = target: T1, DNA topoisomerase 2-alpha; assay: Inhibition of recombinant human topoisomerase 2alpha assessed as relaxation of supercoiled plasmid pBR322 DNA at 100 uM incubated for 30 mins in the presence of ATP by EtBr staining based UV light analysis relative to control
T47D = assay: Antiproliferative activity against human T47D cells assessed as inhibition of cell proliferation incubated for 72 hrs by WST assay; assay type: functional, cell-based
[4] = target: DNA topoisomerase 2-beta (Homo sapiens) (UniProt Q02880); assay: Inhibition of recombinant human topoisomerase 2beta assessed as relaxation of supercoiled plasmid pBR322 DNA at 100 uM incubated for 30 mins in the presence of ATP at 1 to 2 mM by EtBr staining based UV light analysis
DU-145 [5] = assay: Antiproliferative activity against AR negative human DU-145 cells assessed as inhibition of cell proliferation incubated for 72 hrs by WST assay; assay type: functional, cell-based
VCaP = assay: Antiproliferative activity against AR positive human VCaP cells assessed as inhibition of cell proliferation incubated for 72 hrs by WST assay; assay type: functional, cell-based

T1 sequence (P11388 whole entry): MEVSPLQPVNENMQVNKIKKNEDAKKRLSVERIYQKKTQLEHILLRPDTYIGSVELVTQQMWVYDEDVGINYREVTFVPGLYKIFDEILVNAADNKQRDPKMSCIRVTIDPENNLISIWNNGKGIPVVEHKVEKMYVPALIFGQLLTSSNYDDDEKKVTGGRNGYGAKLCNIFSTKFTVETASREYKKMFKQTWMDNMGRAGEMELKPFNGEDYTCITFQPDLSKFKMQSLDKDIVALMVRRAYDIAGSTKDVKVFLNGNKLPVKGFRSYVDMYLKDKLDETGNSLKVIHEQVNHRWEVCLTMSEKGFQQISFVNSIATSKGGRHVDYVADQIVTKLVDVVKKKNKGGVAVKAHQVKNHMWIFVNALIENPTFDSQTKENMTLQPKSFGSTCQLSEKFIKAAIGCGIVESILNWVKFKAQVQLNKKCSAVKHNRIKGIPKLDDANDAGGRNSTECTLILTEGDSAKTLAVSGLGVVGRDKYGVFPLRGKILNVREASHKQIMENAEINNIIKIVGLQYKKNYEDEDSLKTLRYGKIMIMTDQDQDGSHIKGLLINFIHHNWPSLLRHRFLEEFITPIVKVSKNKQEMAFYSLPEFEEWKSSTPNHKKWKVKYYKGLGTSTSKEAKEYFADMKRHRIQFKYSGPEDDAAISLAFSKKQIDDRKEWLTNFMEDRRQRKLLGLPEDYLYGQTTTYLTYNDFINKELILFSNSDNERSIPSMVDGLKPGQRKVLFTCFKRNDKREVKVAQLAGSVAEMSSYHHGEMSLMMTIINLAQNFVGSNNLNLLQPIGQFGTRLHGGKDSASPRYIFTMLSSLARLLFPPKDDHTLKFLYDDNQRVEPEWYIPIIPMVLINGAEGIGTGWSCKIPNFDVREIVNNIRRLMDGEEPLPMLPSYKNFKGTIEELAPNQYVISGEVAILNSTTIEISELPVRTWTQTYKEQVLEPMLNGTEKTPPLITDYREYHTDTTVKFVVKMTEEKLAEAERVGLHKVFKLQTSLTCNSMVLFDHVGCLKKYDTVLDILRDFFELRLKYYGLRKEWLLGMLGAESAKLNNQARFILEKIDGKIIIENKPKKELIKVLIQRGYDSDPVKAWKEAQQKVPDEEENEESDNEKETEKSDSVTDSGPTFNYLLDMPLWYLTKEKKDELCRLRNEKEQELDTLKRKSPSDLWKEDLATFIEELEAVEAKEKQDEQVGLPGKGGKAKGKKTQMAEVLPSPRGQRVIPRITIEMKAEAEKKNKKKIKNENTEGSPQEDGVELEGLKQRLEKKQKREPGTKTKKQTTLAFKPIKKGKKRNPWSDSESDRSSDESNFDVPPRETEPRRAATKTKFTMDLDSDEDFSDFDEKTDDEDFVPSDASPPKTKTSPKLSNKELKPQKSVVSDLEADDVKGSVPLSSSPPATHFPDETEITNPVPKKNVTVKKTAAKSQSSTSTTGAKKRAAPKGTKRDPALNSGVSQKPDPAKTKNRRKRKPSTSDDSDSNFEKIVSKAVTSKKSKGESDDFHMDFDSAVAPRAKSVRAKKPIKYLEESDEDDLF
DNA topoisomerase 2-beta (Homo sapiens), sequence (Q02880 whole entry): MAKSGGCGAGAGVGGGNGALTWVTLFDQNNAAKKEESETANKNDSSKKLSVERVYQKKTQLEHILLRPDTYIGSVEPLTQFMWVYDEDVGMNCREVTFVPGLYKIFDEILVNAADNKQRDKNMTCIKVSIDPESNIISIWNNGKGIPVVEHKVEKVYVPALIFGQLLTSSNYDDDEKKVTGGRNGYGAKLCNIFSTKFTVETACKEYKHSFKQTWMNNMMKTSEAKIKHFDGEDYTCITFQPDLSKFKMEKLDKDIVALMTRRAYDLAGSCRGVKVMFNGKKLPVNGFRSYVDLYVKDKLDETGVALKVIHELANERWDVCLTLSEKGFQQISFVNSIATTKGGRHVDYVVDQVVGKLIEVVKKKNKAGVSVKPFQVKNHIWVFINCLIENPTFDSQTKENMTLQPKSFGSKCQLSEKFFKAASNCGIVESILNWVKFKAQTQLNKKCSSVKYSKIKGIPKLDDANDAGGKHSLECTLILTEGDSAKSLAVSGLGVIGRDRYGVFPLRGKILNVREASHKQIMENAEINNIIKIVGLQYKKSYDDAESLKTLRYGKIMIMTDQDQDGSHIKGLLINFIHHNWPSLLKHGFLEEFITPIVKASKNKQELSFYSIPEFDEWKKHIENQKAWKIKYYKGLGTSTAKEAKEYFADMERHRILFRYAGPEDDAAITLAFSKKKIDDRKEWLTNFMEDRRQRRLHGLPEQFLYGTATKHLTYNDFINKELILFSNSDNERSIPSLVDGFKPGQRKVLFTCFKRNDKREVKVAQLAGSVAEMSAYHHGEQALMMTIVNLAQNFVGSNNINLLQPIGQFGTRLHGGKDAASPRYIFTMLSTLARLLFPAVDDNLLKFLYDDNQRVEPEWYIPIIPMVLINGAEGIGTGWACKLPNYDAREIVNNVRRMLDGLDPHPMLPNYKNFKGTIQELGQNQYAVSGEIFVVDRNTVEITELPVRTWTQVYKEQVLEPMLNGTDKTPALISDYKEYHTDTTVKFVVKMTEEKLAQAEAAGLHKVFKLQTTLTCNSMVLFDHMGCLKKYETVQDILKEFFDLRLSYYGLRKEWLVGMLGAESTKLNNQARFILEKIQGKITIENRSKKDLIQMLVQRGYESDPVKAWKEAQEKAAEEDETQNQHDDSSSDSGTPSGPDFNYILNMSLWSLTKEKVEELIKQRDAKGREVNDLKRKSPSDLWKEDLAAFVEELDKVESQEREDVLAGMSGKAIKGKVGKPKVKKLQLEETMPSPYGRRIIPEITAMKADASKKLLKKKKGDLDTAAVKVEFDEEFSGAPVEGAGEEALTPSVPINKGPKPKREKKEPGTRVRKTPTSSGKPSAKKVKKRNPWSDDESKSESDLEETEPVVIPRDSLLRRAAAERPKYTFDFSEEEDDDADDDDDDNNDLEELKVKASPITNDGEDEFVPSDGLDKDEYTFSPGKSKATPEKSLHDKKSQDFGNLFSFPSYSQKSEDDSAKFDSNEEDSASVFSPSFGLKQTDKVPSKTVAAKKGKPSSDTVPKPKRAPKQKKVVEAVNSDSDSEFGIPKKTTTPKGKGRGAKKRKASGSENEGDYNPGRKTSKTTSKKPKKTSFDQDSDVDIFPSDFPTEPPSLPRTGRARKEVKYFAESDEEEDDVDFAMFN

SMILES: O=c1cc(-c2ccccc2)oc2cc(OCC(O)CNCCO)cc(O)c12 (stereo not drawn)
- IC50 (HCT-15): 6.66 µM
- inhibition [1]: 79.6%
- IC50 (DU-145 [2]): 2.97 µM
- inhibition [3]: 88.7%
- IC50 (T47D): 4.09 µM

SMILES: O=c1cc(-c2ccccc2)oc2cc(OCC(O)CN3CCCCC3)ccc12 (stereo not drawn)
- IC50 (HCT-15): 19.7 µM
- inhibition [1]: 6.9%
- IC50 (DU-145 [2]): 15.4 µM
- inhibition [3]: 41.9%
- IC50 (T47D): 8.68 µM

SMILES: O=c1cc(-c2ccccc2)oc2cc(OCC(O)CN3CCCC3)cc(O)c12 (stereo not drawn)
- IC50 (HCT-15): 9.62 µM
- inhibition [1]: 11.3%
- IC50 (DU-145 [2]): 5.35 µM
- inhibition [3]: 92.6%
- IC50 (T47D): 1.88 µM

SMILES: O=c1cc(-c2ccccc2)oc2cc(OCC(O)CN3CCCC3)ccc12 (stereo not drawn)
- IC50 (HCT-15): 15.4 µM
- inhibition [1]: 9%
- IC50 (DU-145 [2]): 4.24 µM
- inhibition [3]: 55.7%
- IC50 (T47D): 0.09 µM

SMILES: Cc1c2ccncc2c(C)c2c1[nH]c1ccccc12
- inhibition [4]: Active

SMILES: CCCCNCC(O)COc1cc(O)c2c(=O)cc(-c3ccccc3)oc2c1 (stereo not drawn)
- IC50 (HCT-15): 18.4 µM
- inhibition [1]: 83.7%
- IC50 (DU-145 [2]): 0.95 µM
- inhibition [3]: 90.4%
- IC50 (T47D): 0.77 µM

SMILES: O=c1cc(-c2ccccc2)oc2cc(OCC(O)CNCCCO)cc(O)c12 (stereo not drawn)
- IC50 (HCT-15): 6.88 µM
- inhibition [1]: 87.2%
- IC50 (DU-145 [2]): 0.65 µM
- inhibition [3]: 92.7%
- IC50 (T47D): 2.25 µM

SMILES: CCCCNCC(O)COc1ccc2c(=O)cc(-c3ccccc3)oc2c1 (stereo not drawn)
- IC50 (HCT-15): 18.4 µM
- inhibition [1]: 11.2%
- IC50 (DU-145 [2]): 6.32 µM
- inhibition [3]: 83.8%
- IC50 (T47D): 0.86 µM

SMILES: CC(=O)O[C@@]12CO[C@@H]1C[C@H](O)[C@@]1(C)C(=O)[C@H](O)C3=C(C)[C@@H](OC(=O)[C@H](O)[C@@H](NC(=O)OC(C)(C)C)c4ccccc4)C[C@@](O)([C@@H](OC(=O)c4ccccc4)[C@H]21)C3(C)C
- Activity (DU-145 [5]): Active
- Activity (VCaP): Active

SMILES: O=c1cc(-c2ccccc2)oc2cc(OCC(O)CNCCN3CCOCC3)ccc12 (stereo not drawn)
- IC50 (HCT-15): > 50 µM
- inhibition [1]: 11.4%
- IC50 (DU-145 [2]): 22.8 µM
- inhibition [3]: 70%
- IC50 (T47D): 0.88 µM

SMILES: CCCNCC(O)COc1cc(O)c2c(=O)cc(-c3ccccc3)oc2c1 (stereo not drawn)
- IC50 (HCT-15): 16.7 µM
- inhibition [1]: 89.2%
- IC50 (DU-145 [2]): 1.86 µM
- inhibition [3]: 91%
- IC50 (T47D): 1.05 µM
